Measured values: paper PMC9022196 (Pharmacology Research & Perspectives, 2022)
Where “and” joins values, the source holds several entries; their conditions need not be identical. Equal values may be shown once. Entries after “also recorded” stand apart in the source; their conditions may differ. Where a name gives a salt, the structure may show the parent alone. Read-outs that look alike come from different tables or passages of the source.

Key:
[1] = system: LMH cells; test: Fluorescence-based in vitro drug screening assay; type: cell-based, chicken; settings: for Fluorescence reading / Fluorescence readings compared with the […] AIA control: 18–24 h; for Fluorescence reading: ex 410/em 625 nm; for Porphyrogenicity / PP accumulation (authors' conclusion in words): with and without DFO; for Fluorescence readings compared with the […] AIA control: in the presence of DFO, 0–1 mM
[2] = system: HepG2 cells; test: Fluorescence-based in vitro drug screening assay; type: cell-based, human; settings: 1 mM compound + DFO, 18–24 h
[3] = system: HepG2 spheroids; test: Fluorescence-based in vitro drug screening assay in HepG2 spheroids; type: cell-based, human; settings: for Fluorescence reading compared with background: HepG2 organoids/spheroids, 0.5 mM compound with and without DFO
[4] = system: human liver organoids; test: Fluorescence-based in vitro drug screening assay in human liver organoids; type: cell-based; settings: approximately 100 human liver organoids, 0.5 mM compound + DFO, 18–24 h
[5] = system: LMH cells; test: ATPLite cytotoxicity assay in LMH cells; settings: 1 mM compound in the presence of DFO
[6] = system: hydroxymethylbilane synthase; settings: human erythrocytes; cited from earlier work
[7] = system: hydroxymethylbilane synthase; settings: rat livers; cited from earlier work
[8] = cited from earlier work; for Maximal plasma concentration: ref 39 (Nagelschmitz et al.), listed as aspirin
[9] = ATPLite cytotoxicity assay in LMH cells; settings: chicken, CC50, LMH cells, 18–24 h, presence of 250 μM DFO
[10] = 1 mM compound in the presence of DFO
[11] = LMH cells, 1 mM compound + 250 μM DFO
[12] = humans, typically used oral doses
[13] = LMH cells, […] compound + 250 μM DFO

With `NCC(=O)CCC(=O)O` [ALA, 5‐aminolevulinic acid] the “Fold higher fluorescence readings in LMH cells than in HepG2 cells” value [1, 10] was “approximately 2.1 fold”, the “Fold higher fluorescence readings in LMH cells than in HepG2 organoids” value [1, 10] was about 1.9 fold and the “Fold higher fluorescence readings in LMH cells than in human liver organoids” value [1, 10] was about 7 fold. For the same compound, the Fluorescence reading [1, 11] was “above 10 000 RFU”, the Fluorescence reading [2] was “above 5000 RFU” and the Fluorescence reading ([3]; approximately 200 HepG2 spheroids, 0.5 mM compound + DFO, 18–24 h) was “above 6000 RFU”. For the same compound, the Fluorescence reading [4] was “above 1600 RFU” and the “Cytotoxic effect” value [5] was “mild cytotoxic effects”.
In the case of `Cc1noc(NS(=O)(=O)c2ccc(N)cc2)c1C` [sulfisoxazole], the “Porphyrogenicity / PP accumulation (authors' conclusion in words)” value (shortened to “Porphyrogenicity / PP accumulation”) ([1]; LMH cells) is given as “neither of these drugs led to excess PP accumulation”, the “Effect on the activity of hydroxymethylbilane synthase” value [6] is given as “did not affect the activity” and the “Effect on the activity of hydroxymethylbilane synthase” value [7] is given as “did not affect the activity”.
For `CCCC(CCC)C(=O)O` [valproic acid], the Maximal serum concentration ([8]; humans, typically used oral doses (norgestrel, valproic acid)) is listed as about 8.81 mM and the Maximal serum concentration [8, 12] is listed as “approximately 1271 mg/L”.
In the case of `C[C@]12CC[C@@H]3c4ccc(O)cc4CC[C@H]3[C@@H]1CC[C@@H]2O` [β‐estradiol], the “Porphyrogenicity / PP accumulation” value ([1]; LMH cells) was “notable accumulation of PP”.
In the case of `CCCC(CCC)C(=O)O` [sodium valproate], the “Porphyrogenicity / PP accumulation” value ([1]; LMH cells) was “porphyrogenic”.
With `C#CC1(O)CC[C@H]2[C@@H]3CCC4=CC(=O)CC[C@@H]4[C@H]3CC[C@@]21CC` (mixture of isomers) [norgestrel, D (‐) norgestrel] the Fluorescence reading [1, 13] was 6890 ± 106 RFU, the “Fluorescence readings compared with the […] AIA control” value ([1]; LMH cells) was “above the 0.314‐mM AIA control” and the “Porphyrogenicity / PP accumulation” value ([1]; LMH cells) was “porphyrogenic; also recorded: notable accumulation of PP”. For the same compound, the Maximal serum concentration [8, 12] was “approximately 14.1 ng/ml”.
In the case of `CC(=O)Oc1ccccc1C(=O)O` [acetylsalicylic acid], the “Porphyrogenicity / PP accumulation” value ([1]; LMH cells) is listed as “not porphyrogenic”, the Maximal plasma concentration ([8]; intravenous 500-mg dose) is listed as 54.25 mg/L and 0.30 mM and the Maximal plasma concentration ([8]; oral 500-mg dose) is listed as 4.84 mg/L and 0.027 mM.
For `CCN(CCO)CCCC(C)Nc1ccnc2cc(Cl)ccc12` (stereo not drawn) [hydroxychloroquine, hydroxychloroquine sulfate], the “Porphyrogenicity / PP accumulation” value ([1]; LMH cells) was “does not upregulate hepatic ALAS‐1” and the CC50 [9] was 381 µM.
For `CCCCC(=O)N(Cc1ccc(-c2ccccc2-c2nnn[nH]2)cc1)[C@H](C(=O)O)C(C)C` [valsartan], the “Porphyrogenicity / PP accumulation” value ([1]; LMH cells) was “did not show evidence of porphyrogenicity”.
For `CC(=O)Nc1ccc(O)cc1` [acetaminophen], the “Porphyrogenicity / PP accumulation” value ([1]; LMH cells) is listed as “not porphyrogenic” and the Maximum plasma concentration ([8]; oral 1000-mg tablet, ref 40 (Hong et al.)) is listed as “approximately 8.79 mg/L and ~0.058 mM”.
In the case of `C[C@](N)(Cc1ccc(O)c(O)c1)C(=O)O` [alpha‐methyldopa], the “Porphyrogenicity / PP accumulation” value ([1]; LMH cells) was “did not lead to an appreciable accumulation of PP” and the CC50 [9] was 164 µM.
For `O=C1NC(=O)C(c2ccccc2)(c2ccccc2)N1` [phenytoin], the Fluorescence reading [1, 13] was 5913 ± 190 RFU, the “Fluorescence readings compared with the […] AIA control” value ([1]; LMH cells) was “above the 0.314‐mM AIA control” and the “Porphyrogenicity / PP accumulation” value ([1]; LMH cells) was “porphyrogenic”. The “Fluorescence reading compared with background” value [3] was “failed to produce fluorescence readings above background”.
For `CCC1(c2ccccc2)C(=O)NC(=O)NC1=O` [phenobarbital], the Fluorescence reading [1, 11] was 7513 ± 48 RFU, the “Fluorescence readings compared with the AIA positive control” value ([1]; LMH cells, concentrations around 0.024 mM) was “close to the AIA positive control” and the “Fluorescence readings compared with the […] AIA control” value ([1]; LMH cells) was “above the 0.314‐mM AIA control”. For the same compound, the “Fluorescence reading compared with background” value [3] was “failed to produce fluorescence readings above background” and the Maximal serum concentration ([8]; 2.9-mg/kg oral dose, ref 43 (Nelson et al.)) was “approximately 5.5 mg/L; also recorded: around 0.024 mM”.
For `O=C1NC(=O)C(c2ccccc2)(c2ccccc2)N1` [phenytoin sodium], the Maximal serum concentration ([8]; humans, oral 300-mg dose, ref 44 (Suthisisang et al.)) is listed as “approximately 1.98 µg/ml and ~7.22 µM”.
